These results are taken from patent US20060281695A1, “Control of parasites in animals by N-[(phenyloxy)phenyl]-1,1,1-trifluoromethanesulfonamide and N-[(phenylsulfanyl)phenyl]-1,1,1-trifluoromethanesulfonamide derivatives” (priority 2005, published 2006).

Data set [1] relates to Haemonchus contortus. Nature of the data set: Haemonchus contortus larvacidal (larval development) assay, LD99. It is filed as in vitro. The procedure: The LD99 value is the dose, expressed as […], that was required to kill 99% of a sample of Haemonchus contortus.
a) Haemonchus Contortus Larvacidal Assay:
The effect of compounds on larval development was determined in the assay described by Gill et al. [International Journal of Parasitology 25:463-470 (1995)]. Briefly, in this assay, nematode eggs are applied to the surface of an agar matrix containing the test compound and then allowed to develop through to the L3, infective stage (6 days). The wells for each dilution of every compound (from highest to lowest concentration) are inspected to determine the well number corresponding to the lowest concentration at which development is inhibited in 99% of the nematode larvae present (LD99). Because well numbers correspond to a two-fold serial dilution of each compound, a titre (dilution factor) is generated as 2^n−1, where n is the well number. By dividing the highest concentration tested by the titre an LD99 value can be obtained, representing the concentration required to inhibit development in 99% of the nematode larvae present. The compounds supplied as solid and viscous liquids are dissolved in DMSO. Twelve serial one-half dilutions in DMSO solution are prepared from the stock solution, each of which is then diluted 1/5 with water. Aliquots (10 μl) of each dilution are transferred to the bioassay plates to give a final concentration range of 0.024 to 50 μg/ml.
(§1) In Table 7, provided below, are listed the Haemonchus contortus LD99 values (measured in micrograms/mL), the Ctenocephalides felis rapid screening values (measured in % mortality), the Ctenocephalides felis LC50 values (measured in micrograms/cm^2) and the Rhipicephalus sanguineus rapid screening values (measured in % mortality) for selected compounds in accordance with the present invention.

Data set [2] deals with Brown Dog Tick (Rhipicephalus sanguineus). The data set is described as follows: Topical application on brown dog ticks, single dose screen (% mortality at 24 hours). It is filed as in vivo. To be noted: adult brown dog ticks, topical 1 μL in acetone on abdomen, single dose 10 μg per tick. How it is done:
d) Topical Application On Brown Dog Ticks (Rhipicephalus sanguineus)
The aim of the test is to determine the presence of significant acaricidal activity in sample compounds or formulations when applied topically on brown dog ticks. A tick is defined as dead if it gives no apparent response when: (i) touched lightly and (ii) then observed for 1 minute. To assess the experimental compound for acaricidal activity, a single dose level is chosen based on known results from previous experiments with a commercially available active reference compound.
In the present example, both permethrin and fipronil were employed as reference compounds. The insect species tested was the Brown Dog Tick (Rhipicephalus sanguineus). Mixed sex adult ticks were used for tests. The strain used was cultured from a field strain and supplied as unfed adult ticks (mixed sex). Ticks were maintained in controlled conditions (temp. 18°±2° C., humidity 75±5% RH).
Test compounds (formulations or active ingredients) were stored in a refrigerator (5±1° C.) unless otherwise specified. The temperature was maintained at 25±1° C. and the humidity was ambient. The screening dose chosen was higher than that known kill 90% of insects (LD90) using the reference compound. In the case of topical application of active compounds on adult ticks, the reference compound was fipronil and the dose chosen was 10 μg of active per tick (=10 μg of fipronil/1 μl of acetone). Ticks were each treated on the abdomen with 1 μL of a single dose level of test sample in acetone; ten ticks were treated with solvent only (acetone) in each test. Tests were replicated 4 times (total of 40 ticks treated). Ticks were held in recovery containers maintained under appropriate rearing conditions for 24 hours. Mortality resulting from the treatments was recorded at 24 hours. Pooled 24 hour mortality data were converted to percentages.
as §1

Data set [3] deals with cat flea (Ctenocephalides felis). Nature of the data set: Ctenocephalides felis adulticide assay: single dose screen on treated glass surface (% mortality at 1.26 μg/cm^2, 24 hours). To be noted: for Ctenocephalides felis Mortality (%) 24 h: in vivo. It counts as in vivo. How it is done: (§2) The LC50 value is the concentration, expressed as μg/cm^2, that was required to kill 50% of the sample of cat fleas on contact with the tested compound. Certain tests are also reported as the percent of a sample of cat fleas that were killed at a concentration of 1.26 μg/cm^2 (“% mortality”), for the compounds tested in this way.
b) Ctenocephalides felis Adulticide Assay: C.felis single dose screen
Mortality of fleas is the primary endpoint in the assay. […] The concentration chosen (1.26 μg/cm^2) is higher than that known to kill 90% of cat fleas (LC90) using the reference compound, permethrin.
The test species employed was the cat flea (Ctenocephalides felis). The strain used was obtained from external suppliers as pupae and held in the laboratory under testing conditions until the adults had emerged. Fifteen (15) fleas were used in a minimum of four replicates against a single concentration level (approximately 60 fleas). The insects were selected to be in the adult life stage, aged between 3 and 7 days post emergence.
The compounds to be tested were supplied as solids and were prepared in acetone as described below prior to testing. Samples were stored in a refrigerator (5±1° C.) unless otherwise specified.
During the mortality testing, the temperature was maintained at 25±1° C. Humidity was maintained at 75±5%. The base (area=159 mm^2) of a 100 mL glass Erlenmeyer (conical) flask provided the treatment surface. Flasks were pre-treated with Coatasil™ glass treatment to maximise bio-availability of test compounds by preventing them from binding to glass the surface. The base of the 100 mL Erlenmeyer flask was treated with 0.5 mL of test sample in acetone and gently swirled. This volume was sufficient to cover the base of the flask. Flasks were left to dry for 24 hours before flea exposure.
Adult cat fleas were placed into a sorting chamber, which allowed fleas to jump into the Erlenmeyer flasks. Fifteen (15) adult cat fleas were collected in each flask. The top of the flasks were then covered in Parafilm™ and small holes were made to allow gas exchange. A 0.5 mL volume of acetone as a solvent control was applied to the base of an Erlenmeyer flask and the testing proceeded in the same manner described above. […] Pooled 24 hour mortality data were converted to percentages and are summarized by Table 4, below.
as §1

Data set [4] has the same test system. Nature of the data set: Ctenocephalides felis adulticide assay: dose response on treated glass surface (LC50, 24 hours). The settings on record: adult cat fleas, 24 h mortality, probit analysis. It is filed as in vivo. How it is done:
as §2
c) Ctenocephalides felis Adulticide Assay: C. felis dose response The purpose of this example is to determine the LC50 when cat fleas are contacted with a glass surface treated with sample compounds or formulations prepared as described above. Mortality of fleas is defined as follows: fleas are considered dead if they don't move or are on their sides and unable to walk or right themselves. LC50: Lethal Concentration 50— concentration of glass surface treatment at which 50% of the cat fleas are killed.
The test species employed was the cat flea (Ctenocephalides felis). The strain used was obtained from external suppliers as pupae and held in the laboratory under testing conditions until the adults had emerged. Fifteen (15) fleas were used in a minimum of four replicates for each dose level (total of 60 fleas per dose level). The insects were selected to be in the adult life stage, aged between 3 and 7 days post emergence.
The compounds to be tested were dissolved in acetone just prior to testing. Samples of compounds were stored in a refrigerator (5±1° C.) unless otherwise specified. During the mortality testing, the temperature was maintained at 25±1° C. Humidity was maintained at 75±5%. The base (area=159 mm^2) of a 100 mL glass Erlenmeyer (conical) flask provided the treatment surface. Flasks were pre-treated with Coatasil™ glass treatment to maximise bio-availability of test compounds by preventing them from binding to the glass surface.
Six dose levels (concentrations) of test sample, in the form of a serial dilution, were derived from a pilot study and covered a range that produced very low to very high mortality. The base of the 100 mL Erlenmeyer flask was treated with 0.5 mL of test sample in acetone and gently swirled. This volume was sufficient to cover the base of the flask. Flasks were left to dry for 24 hours before flea exposure. Adult cat fleas were lightly anaesthetised by cooling and then placed into a sorting chamber, which allowed fleas to revive and jump into the Erlenmeyer flasks. Fifteen (15) adult cat fleas were collected in each flask. The top of the flasks were then covered in Parafilm™ and small holes made to allow gas exchange. A 0.5 mL volume of acetone was applied to the base of an Erlenmeyer flask and the testing proceeded in the same manner described above. Cat fleas in the treatment containers were held under testing conditions for 24 hours. Mortality resulting from the treatments was recorded at 24 hours. […] 3rd ed. Cambridge Univ. Press, London (1971)].
as §1

As usually defined, the mortality is the share of the test organisms that died. In the case of `O=S(=O)(Nc1ccc(Cl)cc1Oc1ccc(Cl)cc1Cl)C(F)(F)F` [Compound 1, N-[4-Chloro-2-(2,4-dichlorophenoxy)phenyl]-1,1,1-trifluoromethanesulfonamide], the “Haemonchus contortus LD99” value in data set [1] was determined as 1.5 µg/mL. Moreover, in data set [2], the “Rhipicephalus sanguineus Mortality (%) 24 h” value is given as 68%. Also, the mortality at 1.26 µg/cm2, 1.26 µg/cm2 in data set [3] (Ctenocephalides felis, 24 h, read-out: Ctenocephalides felis Mortality (%) 24 h) came to 100%. Moreover, the “Ctenocephalides felis LC50” value in data set [4] is 0.32 μg/cm^2.

Regarding `O=S(=O)(Nc1ccc(Cl)cc1Oc1ccccc1C(F)(F)F)C(F)(F)F` [Compound 2], the “Haemonchus contortus LD99” value in data set [1] was determined as 5.5 µg/mL. Moreover, the “Rhipicephalus sanguineus Mortality (%) 24 h” value in data set [2] is listed as 28%. In addition, in data set [3], the “Ctenocephalides felis Mortality (%) 24 h” value is 100%. Besides, the “Ctenocephalides felis LC50” value in data set [4] was 0.19 μg/cm^2.

Regarding `O=S(=O)(Nc1ccc(Cl)cc1Oc1ccc(F)cc1F)C(F)(F)F` [Compound 4], the “Haemonchus contortus LD99” value in data set [1] stood at 12.0 µg/mL. For the same molecule, in data set [2], the “Rhipicephalus sanguineus Mortality (%) 24 h” value turned out to be 83%. In addition, the “Ctenocephalides felis Mortality (%) 24 h” value in data set [3] came out at 98%. Besides, the “Ctenocephalides felis LC50” value in data set [4] came out at 0.27 μg/cm^2.

Consider `O=S(=O)(Nc1ccc(Cl)cc1Oc1ccc(Cl)cc1)C(F)(F)F` [Compound 5], for which, in data set [1], the “Haemonchus contortus LD99” value was found to be 11.0 µg/mL. Also, in data set [3], the “Ctenocephalides felis Mortality (%) 24 h” value is given as 100%. Besides, the “Ctenocephalides felis LC50” value in data set [4] is listed as 0.66 μg/cm^2.

On to `O=S(=O)(Nc1cc(Cl)ccc1Oc1ccc(Cl)cc1Cl)C(F)(F)F` [Compound 8], for which the “Haemonchus contortus LD99” value in data set [1] is 2.75 µg/mL. For the same molecule, in data set [3], the “Ctenocephalides felis Mortality (%) 24 h” value is reported as 62%. In addition, the “Ctenocephalides felis LC50” value in data set [4] is listed as 0.59 μg/cm^2.

In the case of `O=S(=O)(Nc1ccc(Cl)cc1Sc1cccc(Cl)c1)C(F)(F)F` [Compound 15], in data set [1], the “Haemonchus contortus LD99” value came to 5.5 µg/mL. Besides, the “Ctenocephalides felis Mortality (%) 24 h” value in data set [3] came out at 100%. In addition, the “Ctenocephalides felis LC50” value in data set [4] came to 0.30 μg/cm^2.

As to `O=S(=O)(Nc1ccc(Cl)cc1Oc1ccc(F)c(F)c1)C(F)(F)F` [Compound 16], in data set [1], the “Haemonchus contortus LD99” value came to 11.0 µg/mL. Also, in data set [3], the “Ctenocephalides felis Mortality (%) 24 h” value was 100%. In addition, the “Ctenocephalides felis LC50” value in data set [4] was 0.78 μg/cm^2.

`O=S(=O)(Nc1ccc(Cl)cc1Oc1cccc(F)c1)C(F)(F)F` [Compound 25]: the “Ctenocephalides felis Mortality (%) 24 h” value in data set [3] stood at 100%. The “Ctenocephalides felis LC50” value in data set [4] is reported as 0.73 μg/cm^2.

As for `O=S(=O)(Nc1ccc(Cl)cc1Oc1ccc(F)cc1)C(F)(F)F` [Compound 26], the “Ctenocephalides felis Mortality (%) 24 h” value in data set [3] was found to be 100%. The “Ctenocephalides felis LC50” value in data set [4] is on record as 0.33 μg/cm^2.

On to `O=S(=O)(Nc1cc(C(F)(F)F)ccc1Oc1ccc(F)cc1)C(F)(F)F` [Compound 30], for which the “Ctenocephalides felis Mortality (%) 24 h” value in data set [3] came to 100%. Besides, the “Ctenocephalides felis LC50” value in data set [4] worked out at 0.71 μg/cm^2.

Consider `CCc1ccccc1Oc1cc(Cl)ccc1NS(=O)(=O)C(F)(F)F` [Compound 38], for which the “Ctenocephalides felis Mortality (%) 24 h” value in data set [3] was determined as 95%. Also, in data set [4], the “Ctenocephalides felis LC50” value came to 0.75 μg/cm^2.

Regarding `O=S(=O)(Nc1ccc(C(F)(F)F)cc1Oc1cccc(C(F)(F)F)c1)C(F)(F)F` [Compound 55], the “Ctenocephalides felis Mortality (%) 24 h” value in data set [3] is 100%. In addition, the “Ctenocephalides felis LC50” value in data set [4] is 1.88 μg/cm^2.

For `O=S(=O)(Nc1ccc(Cl)cc1Sc1ccccc1)C(F)(F)F` [Compound 59], the “Ctenocephalides felis Mortality (%) 24 h” value in data set [3] is reported as 100%. Further, the “Ctenocephalides felis LC50” value in data set [4] stood at 0.97 μg/cm^2.

As for `O=S(=O)(Nc1ccc(Cl)cc1Sc1ccccc1F)C(F)(F)F` [Compound 68], in data set [2], the “Rhipicephalus sanguineus Mortality (%) 24 h” value is 55%. In data set [3], the “Ctenocephalides felis Mortality (%) 24 h” value is listed as 100%. For the same molecule, in data set [4], the “Ctenocephalides felis LC50” value came to 0.59 μg/cm^2.

As for `CCOCN(c1cccc(Oc2ccccc2)c1)S(=O)(=O)C(F)(F)F` [m3], the “Rhipicephalus sanguineus Mortality (%) 24 h” value in data set [2] was found to be 38%. The “Ctenocephalides felis Mortality (%) 24 h” value in data set [3] is on record as 57%.

With `COCN(c1cccc(Oc2ccccc2)c1)S(=O)(=O)C(F)(F)F` [m4], in data set [2], the “Rhipicephalus sanguineus Mortality (%) 24 h” value amounted to 8%. The “Ctenocephalides felis Mortality (%) 24 h” value in data set [3] is given as 90%.
